According to the supplement of paper PMC10307832:

Experiments:
Test in all cases: relative viability (nuclei count vs DMSO), 5 days (fraction); higher = more cells survive
Selumetinib + OSI-027 = compound: Cn1cnc2c(F)c(Nc3ccc(Br)cc3Cl)c(C(=O)NOCCO)cc21 [Selumetinib] + COc1cccc2cc(-c3nc([C@H]4CC[C@H](C(=O)O)CC4)n4ncnc(N)c34)[nH]c12 [OSI-027] (partner 0.5 µM)
Summary of the method: (§1)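 Relative viability equals treated-well nuclei counts divided by vehicle-well nuclei counts. Counts came from 4× images of lung cancer cell lines grown in 1536-well plates for 5 days after pin-tool dosing on the day after seeding. Dosing used one drug alone or a fixed anchor-drug dose plus five library-drug doses (not always all listed) in √10 steps, and values are medians of duplicate plates.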

Venetoclax + Foretinib = compound: CC1(C)CCC(CN2CCN(c3ccc(C(=O)NS(=O)(=O)c4ccc(NCC5CCOCC5)c([N+](=O)[O-])c4)c(Oc4cnc5[nH]ccc5c4)c3)CC2)=C(c2ccc(Cl)cc2)C1 [Venetoclax] + COc1cc2c(Oc3ccc(NC(=O)C4(C(=O)Nc5ccc(F)cc5)CC4)cc3F)ccnc2cc1OCCCN1CCOCC1 [Foretinib] (partner 0.25 µM)
Summary of the method: as §1

Venetoclax + Lapatinib = compound: CC1(C)CCC(CN2CCN(c3ccc(C(=O)NS(=O)(=O)c4ccc(NCC5CCOCC5)c([N+](=O)[O-])c4)c(Oc4cnc5[nH]ccc5c4)c3)CC2)=C(c2ccc(Cl)cc2)C1 [Venetoclax] + CS(=O)(=O)CCNCc1ccc(-c2ccc3ncnc(Nc4ccc(OCc5cccc(F)c5)c(Cl)c4)c3c2)o1 [Lapatinib] (partner 2 µM)
Summary of the method: as §1

Selumetinib + AZD7762 = compound: Cn1cnc2c(F)c(Nc3ccc(Br)cc3Cl)c(C(=O)NOCCO)cc21 [Selumetinib] + NC(=O)Nc1cc(-c2cccc(F)c2)sc1C(=O)N[C@H]1CCCNC1 [AZD7762] (partner 0.2 µM)
Summary of the method: as §1

| Cell Line | relative viability (Selumetinib + OSI-027; first compound 0.02 µM) | relative viability (Selumetinib + OSI-027; first compound 0.06325 µM) | relative viability (Selumetinib + OSI-027; first compound 0.2 µM) | relative viability (Selumetinib + OSI-027; first compound 0.6325 µM) | relative viability (Venetoclax + Foretinib; first compound 0.01 µM) | relative viability (Venetoclax + Foretinib; first compound 0.03162 µM) | relative viability (Venetoclax + Foretinib; first compound 0.1 µM) | relative viability (Venetoclax + Foretinib; first compound 0.3162 µM) | relative viability (Venetoclax + Foretinib; first compound 1 µM) | relative viability (Venetoclax + Lapatinib; first compound 0.01 µM) | relative viability (Venetoclax + Lapatinib; first compound 0.03162 µM) | relative viability (Venetoclax + Lapatinib; first compound 0.1 µM) | relative viability (Venetoclax + Lapatinib; first compound 0.3162 µM) | relative viability (Venetoclax + Lapatinib; first compound 1 µM) | relative viability (Selumetinib + AZD7762; first compound 0.02 µM) | relative viability (Selumetinib + AZD7762; first compound 0.06325 µM) | relative viability (Selumetinib + AZD7762; first compound 0.2 µM) | relative viability (Selumetinib + AZD7762; first compound 0.6325 µM) |
| --- | --- | --- | --- | --- | --- | --- | --- | --- | --- | --- | --- | --- | --- | --- | --- | --- | --- | --- |
| NCI-H1395 | 0.625 | 0.641 | 0.628 | 0.631 | 1.06 | 1.01 | 1.04 | 1.07 | 0.996 | 1.37 | 1.09 | 0.958 | 1.09 | 0.964 | 0.389 | 0.38 | 0.391 | 0.355 |
| NCI-H1437 | 0.802 | 0.56 | 0.531 | 0.324 | 1.28 | 1.24 | 1.25 | 1.26 | 1.15 | 0.766 | 0.873 | 0.758 | 0.742 | 0.703 | 1.03 | 0.941 | 0.834 | 0.603 |
| NCI-H1651 | 0.815 | 0.585 | 0.627 | 0.693 | 0.876 | 0.787 | 0.834 | 0.823 | 0.808 | 0.92 | 0.885 | 0.747 | 0.905 | 0.764 | 0.44 | 0.42 | 0.445 | 0.495 |
| NCI-H1666 | 0.909 | 0.717 | 0.793 | 0.717 | 0.889 | 0.946 | 0.904 | 0.915 | 0.943 | 0.536 | 0.664 | 0.519 | 0.624 | 0.515 | 0.853 | 0.758 | 0.759 | 0.732 |
| NCI-H1734 | 0.557 | 0.635 | 0.539 | 0.537 | 0.88 | 0.871 | 0.794 | 0.823 | 0.878 | 1.1 | 0.993 | 0.925 | 0.921 | 1.07 | 0.512 | 0.5 | 0.495 | 0.515 |
| NCI-H1755 | 0.745 | 0.698 | 0.681 | 0.673 | 0.905 | 0.893 | 0.951 | 0.882 | 0.899 | 1.05 | 1.08 | 0.796 | 1.04 | 0.961 | 0.522 | 0.352 | 0.393 | 0.451 |
| NCI-H1793 | 0.251 | 0.243 | 0.231 | 0.258 | 0.769 | 0.71 | 0.619 | 0.79 | 0.607 | 0.677 | 0.758 | 0.443 | 0.613 | 0.551 | 0.408 | 0.394 | 0.406 | 0.297 |
| NCI-H1915 | 0.603 | 0.425 | 0.33 | 0.301 | 1.08 | 1.01 | 1.06 | 1.01 | 1.01 | 0.966 | 0.935 | 0.918 | 0.926 | 0.9 | 0.81 | 0.663 | 0.646 | 0.453 |
| NCI-H1944 | 0.4 | 0.391 | 0.337 | 0.335 | 1.06 | 0.904 | 0.847 | 0.911 | 0.912 | 0.859 | 0.654 | 0.802 | 0.853 | 0.912 | 0.448 | 0.438 | 0.401 | 0.427 |
| NCI-H1975 | 0.8 | 0.57 | 0.676 | 0.527 | 0.936 | 1.02 | 0.89 | 0.942 | 0.929 | 1.02 | 0.875 | 0.903 | 0.948 | 0.863 | 0.69 | 0.599 | 0.662 | 0.527 |
